Source: patent publication US12440493B2, “Combination therapy for treating cancer comprising substituted piperazines” (Eli Lilly and Company, priority 2020, dated 2025)
Where “and” joins values, the source holds several entries; their conditions need not be identical. Equal values may be shown once.

Tested on: IDH1(R132H) primary human AML cells
Test: AML clearance in peripheral blood (flow cytometry, % hCD33+hCD45+ of total white cells), human AML PDx models in NSG mice
Assay type: in vivo
Conditions: QD, PO, each value one animal
Description: Compounds and Formulation. For in vivo studies, each test article is prepared at an appropriate concentration with vehicle. […] Compound A is prepared fresh at the appropriate concentrations with vehicle every 7 days and stored at 4° C. between doses. […] Cytarabine is prepared fresh weekly by dilution with sterile saline from stock solution of Cytarabine (injection 20 mg/mL, (Pfizer injectables')). Azacitidine (Sigma, Lot #MKBR7212) is formulated in sterile water and is prepared fresh daily immediately before dosing. In vivo human AML PDx models. […] Two models are used in the studies: […] As needed, splenocytes from tumor-bearing mice are used to propagate and expand the models, as described. Each test article is prepared as described above at an appropriate concentration with vehicle to give animals the doses tested in this study at a dosing volume of 10 μL/gram body weight. Mice receiving Compound A (PO, QD) are treated at the indicated doses for the duration of the study. The combination agents are dosed as follows: […] Treated mice are assessed in comparison to vehicle treated and naïve (non-tumor bearing) control mice. Body weight is recorded twice per week. […] AML PDx model propagation. […] Spleens are processed and splenocytes isolated as described below. Two hundred μL per subject of the splenocyte prep is injected IV (intravenous, tail vein) into recipient NSG mice. […] Once engraftment is confirmed, the mice are monitored biweekly until ready to be put on study. […] Submandibular blood is collected. Spleen/Splenocyte Processing and Prep. After excision, a spleen is weighed, and […] is placed in a standard sterile 15 mL polypropylene conical tube containing PBS, and placed on ice. […] The spleen is placed in ice cold sterile PBS in a 15 mL collection tube. The spleen is removed from the collection tube and placed in a 100 micron 50 mL conical tube cell strainer (BD Falcon #352360). The spleen is processed by gentle rubbing of the spleen tissue against the surface of the cell strainer with the end of a 5 mL syringe plunger in a circular motion. The surface of the strainer is rinsed with 10 mL room temperature sterile DPBS (HyClone SH30028) 3 times during the process. […] The cell pellet is collected by centrifugation (300×g) and washed three times with 30 mL sterile DPBS. The cells are counted and resuspended in DPBS at the desired implant concentration. Bone Marrow Collection. […] Flow cytometry analysis of human white cells. Submandibular blood samples from in vivo studies are collected. Fluor-conjugated antibody stains are added according to the manufacturer's instructions (anti-human CD33-PE (clone WM53, BD Cat #555450), anti-human CD14-APC (clone MφpP9, BD Cat #340436), anti-human CD15-V450 (clone HI98, BD Cat #561584), anti-human CD117-BV421 (clone YB5.B8, BD Cat #562434), anti-human […]7 (clone ICRF44, BD Cat #557754), anti-human […]7 (clone HI30, BD Cat #557748), and anti-human CD3-FITC (clone SK7, BD Cat #340542)). The samples are incubated for 30 minutes at room temperature, protected from light. After the incubation, 1.5 mL 1×BD Lyse/Fix (37° C., (BD #558049)) is added to each sample and incubated for 12 minutes at room temperature. The tubes are centrifuged at 300×g for 7 minutes. BD Lyse/Fix solution is aspirated and the cell pellet washed with stain/wash buffer 3 times (1 wash step consisted of: pellet resuspended in 3 mL stain/wash buffer, centrifuged at 300×g, aspirated wash). Fixed cells are then resuspended in 300 to 400 μL stain/wash buffer. Samples are analyzed on a Becton Dickinson FACSVerse Flow cytometer (Cat #651155 Serial #Z6511550447) using standard flow cytometry principles and techniques. Samples are analyzed on the same day as they are stained and fixed. Population gating and data analysis of percent population are performed in the FACSuite software on the FACSVerse cytometer. Percent population values from the data analysis are plotted in Graphpad Prism or in JMP13. […]

For `C=CC(=O)N1CCN([C@@H](CC2CC2)c2ccc([C@H](C)Nc3ncc4c(n3)N(CC)C(=O)OC4)cc2)CC1` [Compound A, 7-[[(1S)-1-[4-[(1S)-2-cyclopropyl-1-(4-prop-2-enoylpiperazin-1-yl)ethyl]phenyl]ethyl]amino]-1-ethyl-4H-pyrimido[4,5-d][1,3]oxazin-2-one], the “AML clearance (% hCD33 + hCD45+ (of total white cells))” value (Treatment day 2, 3.3 mg/kg Compound A, Table 2A, 3.3 mg/kg) was 17.05% and 19.48% and 22.89% and 20.16% and 18.6% and 25.83% and 19.49%, the “AML clearance (% hCD33 + hCD45+ (of total white cells))” value (Treatment day 7, 1 mg/kg Compound A, 1 mg/kg) was 12.21% and 7.04% and 6.97% and 8.4% and 10.28% and the “AML clearance (% hCD33 + hCD45+ (of total white cells))” value (Treatment day 7, 10 mg/kg Compound A, 10 mg/kg) was 4.04% and 3.35% and 6.37% and 4.2% and 2.73%. For the same compound, the “AML clearance (% hCD33 + hCD45+ (of total white cells))” value (Treatment day 15, 3.3 mg/kg Compound A, Table 2A, 3.3 mg/kg) was 35.68% and 39.36% and 39.41% and 22.01% and 44.8% and 40.7% and 29.24%, the “AML clearance (% hCD33 + hCD45+ (of total white cells))” value (Treatment day 18, 3.3 mg/kg Compound A, 3.3 mg/kg) was 20.86% and 33.61% and 41.83% and 32.38% and 38.57% and 42.91% and 20.85% and the “AML clearance (% hCD33 + hCD45+ (of total white cells))” value (Treatment day 23, 1 mg/kg Compound A, 1 mg/kg) was 16.54% and 9.05% and 15.88% and 9.45%. For the same compound, the “AML clearance (% hCD33 + hCD45+ (of total white cells))” value (Treatment day 23, 10 mg/kg Compound A, 10 mg/kg) was 4.97% and 1.6% and 8.52% and 2.88% and 2.41%, the “AML clearance (% hCD33 + hCD45+ (of total white cells))” value (Treatment day 28, 3.3 mg/kg Compound A, Table 2A, 3.3 mg/kg) was 32.12% and 43.09% and 32.66% and 35.22% and 35% and 33.35% and the “AML clearance (% hCD33 + hCD45+ (of total white cells))” value (Treatment day 34, 3.3 mg/kg Compound A, 3.3 mg/kg) was 27.18% and 34.09% and 34.27% and 48.87% and 20.33% and 33.11% and 34.28%. For the same compound, the “AML clearance (% hCD33 + hCD45+ (of total white cells))” value (Treatment day 36, 1 mg/kg Compound A, 1 mg/kg) was 16.96% and 20.94% and 15.66% and 13.65%, the “AML clearance (% hCD33 + hCD45+ (of total white cells))” value (Treatment day 36, 10 mg/kg Compound A, 10 mg/kg) was 4.67% and 3.89% and 4.32% and 2.11% and 2.39% and the “AML clearance (% hCD33 + hCD45+ (of total white cells))” value (Treatment day 43, 3.3 mg/kg Compound A, Table 2A, 3.3 mg/kg) was 59.89% and 65.62% and 61.99% and 47.87% and 52.96% and 62.25% and 27.91%. For the same compound, the “AML clearance (% hCD33 + hCD45+ (of total white cells))” value (Treatment day 47, 3.3 mg/kg Compound A, 3.3 mg/kg) was 64.21% and 29.4% and 31.38% and 63.41% and 45.19% and 20.69% and 37.68%, the “AML clearance (% hCD33 + hCD45+ (of total white cells))” value (Treatment day 50, 1 mg/kg Compound A, 1 mg/kg) was 26.13% and 48.71% and 41.07% and 42.54% and the “AML clearance (% hCD33 + hCD45+ (of total white cells))” value (Treatment day 50, 10 mg/kg Compound A, 10 mg/kg) was 2.9% and 3.66% and 5.08% and 2.11% and 1.55%. The “AML clearance (% hCD33 + hCD45+ (of total white cells))” value (Treatment day 58, 3.3 mg/kg Compound A, Table 2A, 3.3 mg/kg) was 67.45% and 59.45% and 67.73% and 53.95% and 44.7% and 48.88% and 71.52%, the “AML clearance (% hCD33 + hCD45+ (of total white cells))” value (Treatment day 61, 3.3 mg/kg Compound A, 3.3 mg/kg) was 68.85% and 72.89% and 47.42% and 56.98% and 82.54% and 38.58% and 74.64% and the “AML clearance (% hCD33 + hCD45+ (of total white cells))” value (Treatment day 64, 1 mg/kg Compound A, 1 mg/kg) was 51.67% and 57.72% and 55.61% and 45.53%. For the same compound, the “AML clearance (% hCD33 + hCD45+ (of total white cells))” value (Treatment day 64, 10 mg/kg Compound A, 10 mg/kg) was 0.94% and 1.66% and 1.11% and 1.55% and 0.62%, the “AML clearance (% hCD33 + hCD45+ (of total white cells))” value (Treatment day 75, 3.3 mg/kg Compound A, 3.3 mg/kg) was 67.91% and 54.26% and 56.55% and 90.69% and 45.05% and 68.73% and the “AML clearance (% hCD33 + hCD45+ (of total white cells))” value (Treatment day 77, 3.3 mg/kg Compound A, Table 2A, 3.3 mg/kg) was 74.81% and 79.27% and 43.75% and 60.02% and 75.38% and 59.74%. For the same compound, the “AML clearance (% hCD33 + hCD45+ (of total white cells))” value (Treatment day 78, 1 mg/kg Compound A, 1 mg/kg) was 65.17% and 75.95% and 68.32% and 56.56%, the “AML clearance (% hCD33 + hCD45+ (of total white cells))” value (Treatment day 78, 10 mg/kg Compound A, 10 mg/kg) was 0.89% and 1.72% and 0.4% and 0.45% and 0.46% and the “AML clearance (% hCD33 + hCD45+ (of total white cells))” value (Treatment day 84, 1 mg/kg Compound A, 1 mg/kg) was 98.27% and 84.52%. For the same compound, the “AML clearance (% hCD33 + hCD45+ (of total white cells))” value (Treatment day 89, 3.3 mg/kg Compound A, 3.3 mg/kg) was 66.75% and 67.29% and 63.26% and 92.41% and 41.16% and 62.6%, the “AML clearance (% hCD33 + hCD45+ (of total white cells))” value (Treatment day 92, 10 mg/kg Compound A, 10 mg/kg) was 0.8% and 2.36% and 0.4% and 0.19% and 0.32% and the “AML clearance (% hCD33 + hCD45+ (of total white cells))” value (Treatment day 98, 3.3 mg/kg Compound A, Table 2A, 3.3 mg/kg) was 55.63% and 73.72% and 73.42% and 85.43% and 64.03%. The “AML clearance (% hCD33 + hCD45+ (of total white cells))” value (Treatment day −3, 3.3 mg/kg Compound A, 3.3 mg/kg) was 17.5% and 23.88% and 24.18% and 19.46% and 14.94% and 20.14% and the “AML clearance (% hCD33 + hCD45+ (of total white cells))” value (Treatment day −8, 1 mg/kg Compound A, 1 mg/kg) was 6.97% and 3.7% and 3.2% and 7.02% and 11.07%.
